# Experimental data as given in patent US20250041282A1, “METHOD FOR TREATING INFLAMMATORY PULMONARY DISEASE” (FU JEN CATHOLIC UNIVERSITY, priority 2021, published 2025).
# How the values were obtained:
# RAW264.7 macrophages [1] = assay: Quantitative real-time PCR of inflammatory mediators and cytokines; format: cell-based, mouse; details: LPS-induced
# Procedure: RNA was isolated from cells using TRIzol reagent (Invitrogen, Carlsbad, CA, USA) as previously described.^32 The concentration of the isolated RNA was measured using an Epoch microplate spectrophotometer (BioTek, Winooski, VT, USA). One microgram of RNA was reverse-transcribed to cDNA with random primers and an MMLV RT kit (Epicenter Biotechnologies, Madison, WI, USA). The mixture (2 μl) was added to PCR reagents to measure the target mRNA level with specific primers (Table 1). All real-time PCRs were performed in a volume of 20 μl containing 10 μl of Real-time PCR SYBR Green master mix (Toyobo, Osaka, Japan) using a PikoReal 96 Real-Time PCR System (Thermo Fisher Scientific Inc.), according to our previously described method.^33 The expression of β-actin was used as an internal control for RNA quantification.
# RAW264.7 macrophages [2] = assay: Cytokine protein array analysis of conditioned culture media; format: cell-based, mouse
# Procedure: Cytokine array analysis was performed according to the procedure recommended by the Raybio mouse cytokine antibody array 4 (RayBiotech, Inc. Peachtree Corners, GA). This cytokine protein array was used to simultaneously determine the relative levels of 40 different cytokines, chemokines, and acute-phase proteins in a single sample. One hundred microliters of cell culture medium was used for each sample. The signal intensity in the membrane of the cytokine protein array was measured by using ImageJ software and is presented as a heat map drawn by using MultiExperiment Viewer (MeV V.4.9.0) software.
# To distinguish the effect of various FJU-Cs on LPS-induced inflammation, the cell culture media of RAW264.7 macrophages treated with various conditions were harvested and analyzed by using a mouse cytokine antibody array (left panel of FIG. 3). The signal intensities on the array membranes were quantified by densitometry, and the changes in different cytokines are represented as a heat map (right panel of FIG. 3).
# [3] = tested on: STAT3, smad3, TGF1β-induced alpha-SMA and fibronectin; assay: Immunoblot comparison of FJU-C28 with Pirfenidone; format: cell-based; details: versus Pirfenidone; FIGS. 10A-10C
# Procedure: Further, a comparison between FJU-C28 and FDA-approved drug Pirfenidone for effects on STAT3 inhibition, smad3 activation, TGF1β-induced alpha-SMA and fibronectin expression are conducted. The results are shown in the quantitative immunoblot data in FIGS. 10A, 10B and 10C.
# [4] = tested on: C57BL/6 mice with LPS-induced systemic inflammation; assay: Histological examination of lung specimens (H&E); format: in vivo, mouse; details: FJU-C28 5 mg/kg, LPS 7.5 mg/kg, FIG. 12A
# Procedure: Ten-week-old male C57BL/6 mice from BioLasco Taiwan Co., Ltd. (Taipei, Taiwan) were used in the present study. The mice were maintained under standard laboratory conditions as described in a previous study.^34 All animal procedures were approved by the Institutional Animal Care and Use Committee of Fu Jen Catholic University (IACUC approval number: A10508). We also confirmed that all experiments were performed in compliance with the ARRIVE guidelines. All surgeries were performed under anesthesia, and all efforts were made to minimize the pain and discomfort of the animals. The mice were randomly assigned to three groups: control (n=7), LPS (n=7) and LPS plus C28 (n=8). […] The detailed procedure was performed as described in a previous study.^34 The lung function values, including C chord (lung compliance), IC (inspiratory capacity), VC (vital capacity), FEV100 (forced expiratory volume at 100 ms) and FVC (forced vital capacity), were measured using a Buxco Research System. […]
# To evaluate the protective effect of FJU-C28 on lung function in mice with systemic inflammation induced by endotoxin, male C57BL/6 mice were administered LPS (7.5 mg/kg) and treated with/without FJU-C28 (5 mg/kg) for 24 hours; subsequently, lung function parameters were measured using a Buxco pulmonary function test system. […]
# [5] = concentration less than 10 μM, FIG. 2
smiles,measurement,setting,value
C=CCC1CC(Sc2ccccc2)=CC(=O)N1C(=O)C=C (centres unmarked) [FJU-C28],mRNA level of COX2,RAW264.7 macrophages [1]; FIG. 2,downregulated in a concentration-dependent manner
same,mRNA level of iNOS,RAW264.7 macrophages [1]; FIG. 2,downregulated in a concentration-dependent manner
same,mRNA level of IL-1β,RAW264.7 macrophages [1]; [5],concentration-dependently decreased
same,mRNA level of IL-6,RAW264.7 macrophages [1]; [5],concentration-dependently decreased
same,gene expression of IL-6,RAW264.7 macrophages [1]; dose higher than 5 μM,noticeably inhibited
same,gene expression of iNOS,RAW264.7 macrophages [1]; dose higher than 5 μM,noticeably inhibited
same,"LPS-induced secretion of TIMP1, IL-6 and IL-10 (array, in words)",RAW264.7 macrophages [2]; FIG. 3,dramatically suppressed
same,"LPS-induced secretion/expression of RANTES (array, in words)",RAW264.7 macrophages [2]; FIG. 3,dramatically suppressed
same,"Protein array, fold change (mean ± S.E.): BLC",RAW264.7 macrophages [2]; LPS + compound / control,1.3 ± 0.1 fold change
same,"Protein array, fold change (mean ± S.E.): CD30 L",RAW264.7 macrophages [2]; LPS + compound / control,1.6 ± 0.9 fold change
same,"Protein array, fold change (mean ± S.E.): Eotaxin",RAW264.7 macrophages [2]; LPS + compound / control,10.3 ± 6.1 fold change
same,"Protein array, fold change (mean ± S.E.): Eotaxin-2",RAW264.7 macrophages [2]; LPS + compound / control,2.0 ± 1.0 fold change
same,"Protein array, fold change (mean ± S.E.): Fas ligand",RAW264.7 macrophages [2]; LPS + compound / control,1.1 ± 0.8 fold change
same,"Protein array, fold change (mean ± S.E.): Fractalkine",RAW264.7 macrophages [2]; LPS + compound / control,1.0 ± 0.6 fold change
same,"Protein array, fold change (mean ± S.E.): GCSF",RAW264.7 macrophages [2]; LPS + compound / control,20.1 ± 1.9 fold change
same,"Protein array, fold change (mean ± S.E.): GM-CSF",RAW264.7 macrophages [2]; LPS + compound / control,1.5 ± 0.4 fold change
same,"Protein array, fold change (mean ± S.E.): I-TAC",RAW264.7 macrophages [2]; LPS + compound / control,0.8 ± 0.3 fold change
same,"Protein array, fold change (mean ± S.E.): IL-1B",RAW264.7 macrophages [2]; LPS + compound / control,2.6 ± 0.0 fold change
same,"Protein array, fold change (mean ± S.E.): IL-1α",RAW264.7 macrophages [2]; LPS + compound / control,1.1 ± 0.1 fold change
same,"Protein array, fold change (mean ± S.E.): IL-2",RAW264.7 macrophages [2]; LPS + compound / control,2.1 ± 0.2 fold change
same,"Protein array, fold change (mean ± S.E.): IL-3",RAW264.7 macrophages [2]; LPS + compound / control,1.1 ± 0.2 fold change
same,"Protein array, fold change (mean ± S.E.): IL-4",RAW264.7 macrophages [2]; LPS + compound / control,1.2 ± 0.2 fold change
same,"Protein array, fold change (mean ± S.E.): IL-6",RAW264.7 macrophages [2]; LPS + compound / control,1.1 ± 0.2 fold change
same,"Protein array, fold change (mean ± S.E.): IL-9",RAW264.7 macrophages [2]; LPS + compound / control,0.9 ± 0.3 fold change
same,"Protein array, fold change (mean ± S.E.): IL-10",RAW264.7 macrophages [2]; LPS + compound / control,0.3 ± 0.2 fold change
same,"Protein array, fold change (mean ± S.E.): IL-12 p70",RAW264.7 macrophages [2]; LPS + compound / control,0.8 ± 0.2 fold change
same,"Protein array, fold change (mean ± S.E.): IL-12 p-40 p70",RAW264.7 macrophages [2]; LPS + compound / control,0.9 ± 0.1 fold change
same,"Protein array, fold change (mean ± S.E.): IL-13",RAW264.7 macrophages [2]; LPS + compound / control,0.6 ± 0.0 fold change
same,"Protein array, fold change (mean ± S.E.): IL-17",RAW264.7 macrophages [2]; LPS + compound / control,7.8 ± 5.3 fold change
same,"Protein array, fold change (mean ± S.E.): INF gamma",RAW264.7 macrophages [2]; LPS + compound / control,1.4 ± 0.2 fold change
same,"Protein array, fold change (mean ± S.E.): KC",RAW264.7 macrophages [2]; LPS + compound / control,0.8 ± 0.4 fold change
same,"Protein array, fold change (mean ± S.E.): LIX",RAW264.7 macrophages [2]; LPS + compound / control,1.0 ± 0.2 fold change
same,"Protein array, fold change (mean ± S.E.): Leptin",RAW264.7 macrophages [2]; LPS + compound / control,3.2 ± 0.8 fold change
same,"Protein array, fold change (mean ± S.E.): Lymphotactin",RAW264.7 macrophages [2]; LPS + compound / control,0.7 ± 0.2 fold change
same,"Protein array, fold change (mean ± S.E.): MCP-1",RAW264.7 macrophages [2]; LPS + compound / control,1.7 ± 0.2 fold change
same,"Protein array, fold change (mean ± S.E.): MCSF",RAW264.7 macrophages [2]; LPS + compound / control,0.8 ± 0.1 fold change
same,"Protein array, fold change (mean ± S.E.): MIP-1α",RAW264.7 macrophages [2]; LPS + compound / control,1.0 ± 0.2 fold change
same,"Protein array, fold change (mean ± S.E.): MIP-1γ",RAW264.7 macrophages [2]; LPS + compound / control,1.2 ± 0.2 fold change
same,"Protein array, fold change (mean ± S.E.): RANTES",RAW264.7 macrophages [2]; LPS + compound / control,1.3 ± 0.2 fold change
same,"Protein array, fold change (mean ± S.E.): SDF1",RAW264.7 macrophages [2]; LPS + compound / control,0.9 ± 0.2 fold change
same,"Protein array, fold change (mean ± S.E.): STNFRI",RAW264.7 macrophages [2]; LPS + compound / control,1.0 ± 0.0 fold change
same,"Protein array, fold change (mean ± S.E.): STNFRII",RAW264.7 macrophages [2]; LPS + compound / control,2.1 ± 0.1 fold change
same,"Protein array, fold change (mean ± S.E.): TCA-3",RAW264.7 macrophages [2]; LPS + compound / control,0.9 ± 0.1 fold change
same,"Protein array, fold change (mean ± S.E.): TECK",RAW264.7 macrophages [2]; LPS + compound / control,0.5 ± 0.3 fold change
same,"Protein array, fold change (mean ± S.E.): TIMP-1",RAW264.7 macrophages [2]; LPS + compound / control,1.1 ± 0.1 fold change
same,"Protein array, fold change (mean ± S.E.): TIMP-2",RAW264.7 macrophages [2]; LPS + compound / control,0.0 ± 0.0 fold change
same,"Protein array, fold change (mean ± S.E.): TNFα",RAW264.7 macrophages [2]; LPS + compound / control,21.0 ± 0.8 fold change
same,inhibition of STAT3,[3],more significant than that of Pirfenidone
same,inhibition of TGF1β-induced alpha-SMA expression,[3],more significant than that of Pirfenidone
same,inhibition of TGF1β-induced fibronectin expression,[3],more significant than that of Pirfenidone
same,inhibition of smad3,[3],more significant than that of Pirfenidone
same,alveolar structure in lung tissue,[4],sustained most of the alveolar structure
same,neutrophil infiltration in the interstitium of the lung,[4],reduced the neutrophil infiltration in the interstitium
